Experimental data taken from ChEMBL document CHEMBL4261654, “Synthesis and in vitro antitumor activity of novel alkenyl derivatives of pyridoxine, bioisosteric analogs of feruloyl methane” (Bioorg Med Chem, 2018).
Active and inactive are the calls of the source. The rule behind the calls is not given here.

Legend:
MCF7 [1] = assay: Antiproliferative activity against human MCF7 cells after 72 hrs by MTT assay; assay type: functional, cell-based; conditions: MCF7, 72 h
HEK293 = assay: Antiproliferative activity against human HEK293 cells after 72 hrs by MTT assay; assay type: cell-based; conditions: HEK293, 72 h
A498 [2] = assay: Antiproliferative activity against human A498 cells after 72 hrs by MTT assay; assay type: functional, cell-based; conditions: A498, 72 h
NCI-H322M [3] = assay: Antiproliferative activity against human NCI-H322M cells after 72 hrs by MTT assay; assay type: functional, cell-based
MCF7 [4] = assay: Potency index, ratio of compound IC50 to dehydrozingerone IC50 for antiproliferative activity against human MCF7 cells; assay type: functional
M14 [5] = assay: Potency index, ratio of compound IC50 to dehydrozingerone IC50 for antiproliferative activity against human M14 cells; assay type: functional
[6] = Antiproliferative activity against HSF cells after 72 hrs by MTT assay; assay type: cell-based; conditions: Homo sapiens
OVCAR-4 [7] = assay: Antiproliferative activity against human OVCAR4 cells after 72 hrs by MTT assay; assay type: functional, cell-based; conditions: OVCAR-4, 72 h
PC-3 [8] = assay: Antiproliferative activity against human PC3 cells after 72 hrs by MTT assay; assay type: functional, cell-based; conditions: PC-3, 72 h
A498 [9] = assay: Potency index, ratio of compound IC50 to dehydrozingerone IC50 for antiproliferative activity against human A498 cells; assay type: functional
[10] = Selectivity index, ratio of IC50 for HSF cells to IC50 for human MCF7 cells; assay type: toxicity; conditions: HSF cells versus MCF7 cells, read-out: Ratio IC50
OVCAR-4 [11] = assay: Potency index, ratio of compound IC50 to dehydrozingerone IC50 for antiproliferative activity against human OVCAR4 cells; assay type: functional
HCT-15 [12] = assay: Potency index, ratio of compound IC50 to dehydrozingerone IC50 for antiproliferative activity against human HCT15 cells; assay type: functional
SNB-19 [13] = assay: Antiproliferative activity against human SNB19 cells after 72 hrs by MTT assay; assay type: functional, cell-based; conditions: SNB-19, 72 h
NCI-H322M [14] = assay: Potency index, ratio of compound IC50 to dehydrozingerone IC50 for antiproliferative activity against human NCI-H322M cells; assay type: functional
[15] = Ratio of compound IC50 to dehydrozingerone IC50 for antiproliferative activity against HSF cells; assay type: cell-based; conditions: human, read-out: Ratio IC50
MDA-MB-231 [16] = assay: Potency index, ratio of compound IC50 to dehydrozingerone IC50 for antiproliferative activity against human MDA-MB-231 cells; assay type: functional
HCT-15 [17] = assay: Antiproliferative activity against human HCT15 cells after 72 hrs by MTT assay; assay type: functional, cell-based; conditions: HCT-15, 72 h
HCT-116 [18] = assay: Antiproliferative activity against human HCT116 cells after 72 hrs by MTT assay; assay type: functional, cell-based; conditions: HCT-116, 72 h
MDA-MB-231 [19] = assay: Antiproliferative activity against human MDA-MB-231 cells after 72 hrs by MTT assay; assay type: functional, cell-based; conditions: MDA-MB-231, 72 h
[20] = Antioxidant activity assessed as ferric ion reducing activity at 20 to 320 umol after 20 mins by FRAP assay; assay type: functional
SNB-19 [21] = assay: Potency index, ratio of compound IC50 to dehydrozingerone IC50 for antiproliferative activity against human SNB19 cells; assay type: functional
PC-3 [22] = assay: Potency index, ratio of compound IC50 to dehydrozingerone IC50 for antiproliferative activity against human PC3 cells; assay type: functional
HCT-116 [23] = assay: Potency index, ratio of compound IC50 to dehydrozingerone IC50 for antiproliferative activity against human HCT116 cells; assay type: functional
M14 [24] = assay: Antiproliferative activity against human M14 cells after 72 hrs by MTT assay; assay type: functional, cell-based; conditions: M14, 72 h

Compound `CCCC1OCc2c(/C=C/C(C)=O)cnc(C)c2O1` (stereo not drawn) has an IC50 (MCF7 [1]) of 2.2 µM and an IC50 (HEK293) of 2.9 µM.

`CCC1OCc2c(/C=C/C(C)=O)cnc(C)c2O1` (stereo not drawn) showed an IC50 (A498 [2]) of 17 µM, an IC50 (MCF7 [1]) of 3.9 µM and an IC50 (NCI-H322M [3]) of 10.6 µM. The “Ratio IC50” value (MCF7 [4]) was 7 - 211, the “Ratio IC50” value (M14 [5]) was 7 - 211 and the IC50 [6] was 18.9 µM. The IC50 (OVCAR-4 [7]) was 23.6 µM, the IC50 (PC-3 [8]) was 8.8 µM and the “Ratio IC50” value (A498 [9]) was 7 - 211. For the same compound, the selectivity ratio [10] was 4.8, the “Ratio IC50” value (OVCAR-4 [11]) was 7 - 211 and the “Ratio IC50” value (HCT-15 [12]) was 7 - 211. The IC50 (SNB-19 [13]) was 6.7 µM, the “Ratio IC50” value (NCI-H322M [14]) was 7 - 211 and the selectivity ratio [15] was 7 to 211. The “Ratio IC50” value (MDA-MB-231 [16]) was 7 - 211, the IC50 (HEK293) was 36 µM and the IC50 (HCT-15 [17]) was 2.1 µM. For the same compound, the IC50 (HCT-116 [18]) was 4.1 µM, the IC50 (MDA-MB-231 [19]) was 3.1 µM and the Activity [20] was “inactive”. The “Ratio IC50” value (SNB-19 [21]) was 7 - 211, the “Ratio IC50” value (PC-3 [22]) was 7 - 211 and the “Ratio IC50” value (HCT-116 [23]) was 7 - 211. It also gave an IC50 (M14 [24]) of 9.7 µM.

In the case of `O=C1O[C@H]([C@@H](O)CO)C(O)=C1O`, the Activity [20] is reported as “Active”.

Work on `CCCCC1OCc2c(/C=C/C(C)=O)cnc(C)c2O1` (stereo not drawn) yielded an IC50 (MCF7 [1]) of 1.3 µM and an IC50 (HEK293) of 13 µM.

In the case of `CCCCCCCCCC(C)C1OCc2c(/C=C/C(C)=O)cnc(C)c2O1` (stereo not drawn), the IC50 (MCF7 [1]) is reported as 2.4 µM and the IC50 (HEK293) is reported as 7 µM.

`CC(=O)/C=C/c1cnc(C)c2c1COC(C(C)(C)C)O2` (stereo not drawn) gave an IC50 (MCF7 [1]) of 4.1 µM and an IC50 (HEK293) of 1.2 µM.

`CCCCCCCCCC(C)C1OCc2c(/C=C/C(C)=O)nc(C)c(O)c2CO1` (stereo not drawn) showed an IC50 (MCF7 [1]) of 2.9 µM and an IC50 (HEK293) of 1.4 µM.

In the case of `CC(=O)/C=C/c1cnc(C)c2c1COC1(CCCC1)O2`, the IC50 (MCF7 [1]) is reported as 7.2 µM and the IC50 (HEK293) is reported as 17 µM.
